Laboratory results taken from ChEMBL document CHEMBL3244149, “New synthetic routes to tilorone dihydrochloride and some of its analogues” (J Med Chem, 1978).
The source made the active and inactive calls. No cut-off for these calls is given here.

Experiments:
Mus musculus [1] = assay: Toxicity in CD-1 mouse at 100 mg/kg, ip; assay type: organism-based; set-up: dose 100 mg/kg, route intraperitoneal; settings: in vivo
Mus musculus [2] = assay: Induction of interferon production in CD-1 mouse serum at 100 mg/kg, ip after 18 hrs; assay type: functional, organism-based; set-up: dose 100 mg/kg
Mus musculus [3] = assay: Toxicity in CD-1 mouse at 300 mg/kg, ip; assay type: organism-based; set-up: dose 300 mg/kg, route intraperitoneal; settings: in vivo
Mus musculus [4] = assay: Induction of interferon production in CD-1 mouse serum at 10 to 30 mg/kg, ip after 18 hrs; assay type: functional, organism-based

Row | Compound | Activity (Mus musculus [1]) | Activity (Mus musculus [2]) | Activity (Mus musculus [3]) | Activity (Mus musculus [4])
1 | CCN(CC)CCOc1ccc2c(c1)S(=O)(=O)c1cc(OCCN(CC)CC)ccc1-2 | Non-toxic | inactive | Toxic | –
2 | CCN(CC)CCOc1ccc2c(c1)C(=O)c1cc(OCCN(CC)CC)ccc1-2 | – | Active | – | –
3 | CCN(CC)CCOc1cccc(C(=O)c2cccc(OCCN(CC)CC)c2)c1 | Toxic | – | Toxic | inactive
